From article PMC7613515, “Reading and erasing of the phosphonium analogue of trimethyllysine by epigenetic proteins” (Communications Chemistry, 2022)

System: four of the readers
Experiment: ITC, reader domains taken together
Assay type: binding, human
Details: four of the five readers
Description: We investigated the thermodynamics of association of the H3KP4me3 peptide with five representative human reader domains containing either a PHD zinc finger or TTD, i.e. KDM5APHD3 (JARID1A-PHD3, residues M1489–V1641)[10], TAF3PHD (R857–K924)[22], BPTFPHD (L2583–N2751)[23], SGF29TTD (R115–K293)[24] and KDM4ATTD (JMJD2A, Q897-P1011)[25], selected on the basis of their preference for binding Ν^ε-trimethyllysine over other (non)methylation marks (Kme0 < Kme1 < Kme2 < Kme3), and their domain and aromatic cage diversity. The recombinant readers were produced in E. coli following reported procedures. Isothermal titration calorimetric (ITC) analyses were used to determine the dissociation constant (Kd), the Gibbs free energy of binding (ΔG°), the enthalpy of binding (ΔH°), and the entropy of binding (ΔS°). […] (Table 1, Fig. 2, Supplementary Fig. 1).
ITC studies followed a reported procedure. […] Histone peptide titrations were performed with the same reader batches. Solutions of the reader in buffer (25–40 µM) and of the histone H3 peptide (350–600 µM) in buffer were prepared. […] Heats of dilution for histone peptides determined in control experiments were subtracted from the titration binding data. Data were analysed with Origin 6.0 (Microcal Inc., Northampton, Massachusetts, USA) and curve fitting with one-site binding mode was applied.

For `C[C@H](N)C(=O)N[C@@H](CCCNC(=N)N)C(=O)N[C@H](C(=O)N[C@@H](CCCC[P+](C)(C)C)C(=O)N[C@@H](CCC(N)=O)C(=O)N[C@H](C(=O)N[C@@H](C)C(=O)N[C@@H](CCCNC(=N)N)C(=O)N[C@@H](CCCCN)C(=O)N[C@@H](CO)C(N)=O)[C@@H](C)O)[C@@H](C)O` [H3KP4me3], the “binding relative to H3K4me3” value was “stronger complex formation than with H3K4me3”.
